Assay results as given in US11603386B2, “Insect, tick, and mite repellent derived from Xenorhabdus budapestensis” (Wisconsin Alumni Research Foundation, priority 2017, dated 2023).

Tested on: Aedes aegypti
Assay: Repellent screening assay (in vitro membrane feeding, Hemotek feeder, treated cloth)
Type: in vivo
Conditions: for RD90: concentration producing 90% reduction in feeding rate, 30 min exposure
Source text: FIG. 1 is a photograph of the equipment used for the repellent screening assay. The apparatus includes a temperature-controlled feeder unit which includes a collagen casing covered by conventional cheese cloth. The collagen mimics the surface of human and is in contact with a heating element (not seen in FIG. 1) whose temperature is controlled by the temperature controller. The collagen pad is saturated with a solution that mimics human blood. The compound whose repellency is to be tested is applied to the cheese cloth, which is then affixed to the collagen pad. In the main panel in FIG. 1, the feeder unit is shown in its operational position, on top of a container in which are mosquitos (or any other arthropod) that is to be repelled. […] In practice, a known amount of putative repellent is applied to the cheese cloth. Unfed mosquitos, for example, are within the mosquito container. The feeder unit is then placed on top of the mosquito container for a pre-determined amount of time. The mosquitos are then sacrificed and examined to determine how many mosquitos fed (i.e., were not repelled) and how many mosquitos were still unfed after the test (i.e., were repelled). In this fashion, very reliable data can be generated regarding the effectiveness of any putative repellent composition. See Katritzky, A. R., et al. (2008) Proc. Nat. Acad. Sci. (US), 105:7359-7364 and Katritzky, A. R., et al. (2010) Journal of Med. Entomol., 47:924-938.
Unfed mosquitos are then used as test subjects. After the time course of each experiment is completed, the mosquitos are sacrificed and examined to determine how many mosquitos have fed (and thus were not repelled) versus how many mosquitos remain unfed (and thus were repelled). Fed versus unfed mosquitos can be separated by simple visual examination. Fed mosquites have an engorged, distended appearance. Representative images depicting the appearance of fed vs unfed mosquitoes resulting from the repellent screening assays is shown in FIG. 7. Images clearly show engorged abdomens and food red dye when mosquitoes were exposed to water only as negative repellent controls (FIG. 7, panel A).
A colony of the Aedes aegypti Liverpool strain was maintained at the University of Wisconsin according to standard procedures reported previously (Paskewitz et al., 1999; Kajla et al., 2010, Christensen et al., 1984). Anopheles gambiae and Culex pipiens (Iowa strain) were reared according to established protocols (Aliota et al., 2016) in a 100 square feet walk-in environmental chamber maintained at 26.5±0.5° C. and 80±5% relative humidity. For egg production, adult female mosquitoes were offered defibrinated rabbit blood (HemoStat Laboratories, Dixon, Calif., USA) via a Hemotek-brand membrane feeding system (Discovery Workshops, Accrington, UK) once a week. Adult mosquitoes were maintained on a constant exposure to 10% sucrose on cotton balls and larvae were fed Tetramin®-brand fish food. For repellent assays, nulliparous, mated, twenty 7-10 days old adult female mosquitoes were separated in screened pint-size paper containers (Neptune Paper Products, Fort Lee, N.J., USA). Mosquitoes were starved for 12-16 hours before the repellent assay. Mosquitoes were exposed to repellent compounds for 30 min at room temperature (incandescent light, 25-26° C.) between 10:00 am and 4:00 pm (see below for repellent assay set-up).
A Hemotek-brand feeding system was used to keep the feeding solution at a constant temperature set at 37° C. […]

| Compound | RE90 (relative efficacy) | Feeding (engorgement / red dye in abdomen) (1%, positive control, FIG. 7 panel B) | RD90 |
| --- | --- | --- | --- |
| CCN(CC)C(=O)c1cccc(C)c1 [DEET, N,N-diethyl-3-methylbenzamide] | 1 | no feeding occurred | 0.188 Percent concentration (v/v) |
| CCC(C)OC(=O)N1CCCCC1CCO (centres unmarked) [Picaridin] | 0.37 |  | 0.498 Percent concentration (v/v) |
